From US20040266826A1, “Thiophenylthiopyrane dioxides as mmp or tnf-alpha inhibitors” (priority 2001, published 2004)

Tested on: not given
Assay: not given
Conditions: not given

| melting point [°C] | Structure (SMILES) |
| --- | --- |
| 171 to 172 | CCCC#Cc1ccc([C@@]2(CC(=O)O)CCCCS2(=O)=O)s1 [Example 178, ((2S)-1,1-Dioxo-2-(5-[1-pentynyl]thiophen-2-yl}-3,4,5,6-tetrahydro-2H-thiopyran-2-yl)acetic acid] |
| 232 to 235 | COc1ccc2cc(-c3ccc([C@@]4(CC(=O)O)CCCCS4(=O)=O)s3)sc2c1 [Example 52, {(2S)-2-[5-(6-Methoxybenzothiophen-2-yl)thiophen-2-yl]-1,1-dioxo-3,4,5,6-tetrahydro-2H-thiopyran-2-yl} acetic acid] |
| 219 to 221 | O=C(O)C[C@]1(c2ccc(-c3cc4cc(F)ccc4s3)s2)CCCCS1(=O)=O [Example 53, {(2S)-2-[5-(5-Fluorobenzothiophen-2-yl)thiophen-2-yl]-1,1-dioxo-3,4,5,6-tetrahydro-2H-thiopyran-2-yl} acetic acid] |
| 172 to 173 | Cc1ccc(C#Cc2ccc([C@@]3(CC(=O)O)CCCCS3(=O)=O)s2)cc1 [Example 180, ((2S)-1,1-Dioxo-2-{5-[(4-methylphenyl)ethynyl]-thiophen-2-yl}-3,4,5,6-tetrahydro-2H-thiopyran-2-yl)acetic acid] |
| 203 to 204 | O=C(O)C[C@]1(c2ccc(C#Cc3ccc(Cl)cc3)s2)CCCCS1(=O)=O [Example 179, ((2S)-2-{5-[(4-Chlorophenyl)ethynyl]thiophen-2-yl)-1,1-dioxo-3,4,5,6-tetrahydro-2H-thiopyran-2-yl)acetic acid] |
| 219 to 222 | CCOc1ccc2cc(-c3ccc([C@@]4(CC(=O)O)CCCCS4(=O)=O)s3)ccc2c1 [Example 48, {(2S)-1,1-Dioxo-2-[5-(6-ethoxynaphthalen-2-yl)thiophen-2-yl]-3,4,5,6-tetrahydro-2H-thiopyran-2-yl} acetic acid] |
| 260 to 265 | O=C(O)C[C@]1(c2ccc(-c3ccc4cc(-c5cnco5)ccc4c3)s2)CCCCS1(=O)=O [Example 43, ((2S)-1,1-Dioxo-2-{5-[6-(oxazol-5-yl)naphthalen-2-yl]thiophen-2-yl}-3,4,5,6-tetrahydro-2H-thiopyran-2-yl)acetic acid] |
| 230 to 232 | CNC(=O)c1ccc2cc(-c3ccc([C@@]4(CC(=O)O)CCCCS4(=O)=O)s3)ccc2c1 [Example 54, [(2S)-1,1-Dioxo-2-(5-{6-[methylcarbamoyl)naphthalen-2-yl}thiophen-2-yl)-3,4,5,6-tetrahydro-2H-thiopyran-2-yl]acetic acid] |
| 215 to 218 | COc1ccc2sc(-c3ccc([C@@]4(CC(=O)O)CCCCS4(=O)=O)s3)cc2c1 [Example 51, {(2S)-2-[5-(5-Methoxybenzothiophen-2-yl)thiophen-2-yl]-1,1-dioxo-3,4,5,6-tetrahydro-2H-thiopyran-2-yl} acetic acid] |
| 184 to 185 | CC(C)Oc1ccc(-c2ccc([C@@]3(CC(=O)O)CCCCS3(=O)=O)s2)cc1 [Example 96, ((2S)-1,1-Dioxo-2-{5-[4-(1-methylethoxy)phenyl]-thiophen-2-yl}-3,4,5,6-tetrahydro-2H-thiopyran-2-yl) acetic acid] |
| 209 to 213 | Cc1ccc2sc(-c3ccc([C@@]4(CC(=O)O)CCCCS4(=O)=O)s3)cc2c1 [Example 50, {(2S)-2-[5-(5-Methylbenzothiophen-2-yl)thiophen-2-yl]-1,1-dioxo-3,4,5,6-tetrahydro-2H-thiopyran-2-yl} acetic acid] |

Target: T1, human MMP-9 (Homo sapiens, UniProt P14780)
T1 construct: purchased Yagai, Japan
Assay: Inhibitory activity of human MMP-9 (commercial kit, degradation of FITC-labeled bovine type IV collagen)
Assay type: biochemical
Conditions: incubation 4 hours at 42° C.
Description: Inhibitory Activity of Human MMP-9
The inhibitory activity of test compounds against human MMP-9 were measured by using commercial kits (Yagai, Japan). Gelatinolytic activity was determined by monitoring the degradation of FITC-labeled bovine type IV collagen after incubation for 4 hours at 42° C. The amount of degraded collagen was estimated by measuring the fluorescence intensity at 495 nm (excitation) and 520 nm (emission).
Inhibitory activity of human MMP-9 as mentioned above.

T1 sequence (P14780 94-707): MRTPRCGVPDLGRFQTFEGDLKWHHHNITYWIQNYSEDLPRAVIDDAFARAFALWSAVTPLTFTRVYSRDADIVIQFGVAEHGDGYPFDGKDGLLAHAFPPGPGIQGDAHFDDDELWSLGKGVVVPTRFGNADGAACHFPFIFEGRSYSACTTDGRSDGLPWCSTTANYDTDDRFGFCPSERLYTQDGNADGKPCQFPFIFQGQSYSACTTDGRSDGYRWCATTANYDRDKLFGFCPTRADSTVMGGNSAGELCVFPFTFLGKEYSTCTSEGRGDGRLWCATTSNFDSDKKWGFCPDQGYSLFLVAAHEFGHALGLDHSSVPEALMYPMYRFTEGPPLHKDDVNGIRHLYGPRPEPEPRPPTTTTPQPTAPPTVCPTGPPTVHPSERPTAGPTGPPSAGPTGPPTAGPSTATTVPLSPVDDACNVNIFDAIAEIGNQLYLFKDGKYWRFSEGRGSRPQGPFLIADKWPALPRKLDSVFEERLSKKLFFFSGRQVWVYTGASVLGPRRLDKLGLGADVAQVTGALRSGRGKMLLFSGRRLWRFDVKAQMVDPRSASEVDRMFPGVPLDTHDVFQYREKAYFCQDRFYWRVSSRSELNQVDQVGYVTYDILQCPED

| IC50 [nM] | Structure (SMILES) |
| --- | --- |
| 2.77 | O=C(O)C[C@]1(c2ccc(-c3ccc(-c4ccsc4)cc3)s2)CCCCS1(=O)=O [Example 35, ((2S)-1,1-Dioxo-2-{5-[4-(thiophen-3-yl)phenyl]-thiophen-2-yl}-3,4,5,6-tetrahydro-2H-thiopyran-2-yl)acetic acid] |
| 1.37 | O=C(O)C[C@]1(c2ccc(-c3cc4ccc(F)cc4s3)s2)CCCCS1(=O)=O [Example 97, {(2S)-1,1-Dioxo-2-[5-(6-fluorobenzothiophen-2-yl)thiophen-2-yl]-3,4,5,6-tetrahydro-2H-thiopyran-2-yl}acetic acid] |
| 7.17 | O=C(O)C[C@]1(c2ccc(C#Cc3ccc(Cl)cc3)s2)CCCCS1(=O)=O [Example 179, ((2S)-2-{5-[(4-Chlorophenyl)ethynyl]thiophen-2-yl)-1,1-dioxo-3,4,5,6-tetrahydro-2H-thiopyran-2-yl)acetic acid] |
| 16 | O=C(O)C[C@]1(c2ccc(-c3ccc(-c4cnco4)cc3)s2)CCCCS1(=O)=O [Example 3, [(2S)-2-[5-[4-(5-Oxazolyl)phenyl]thiophen-2-yl]-1,1-dioxo-3,4,5,6-tetrahydro-2H-thiopyran-2-yl]acetic acid] |
| 4.56 | COc1ccc2sc(-c3ccc([C@@]4(CC(=O)O)CCCCS4(=O)=O)s3)cc2c1 [Example 51, {(2S)-2-[5-(5-Methoxybenzothiophen-2-yl)thiophen-2-yl]-1,1-dioxo-3,4,5,6-tetrahydro-2H-thiopyran-2-yl} acetic acid] |
